Experiments:
Assay type in all cases: in vivo
[1] = tested on: Myzus persicae; assay: Myzus persicae spray test (MYZUPE), Chinese cabbage leaf-disks; details: mortality after 6 d
Description: (§1) For all examples the efficiencies of the compositions comprising at least one BCA and at least one specific insecticide has been determined by the “Colby-formula”: The expected efficacy of a given combination of two compounds is calculated as follows (see Colby, S. R., “Calculating Synergistic and antagonistic Responses of Herbicide Combinations”, Weeds 15, pp. 20-22, 1967):
(§2) If • X is the efficacy expressed in % mortality of the untreated control for test compound A at a concentration of m ppm respectively m g/ha, • Y is the efficacy expressed in % mortality of the untreated control for test compound B at a concentration of n ppm respectively n g/ha, • E is the efficacy expressed in % mortality of the untreated control using the mixture of A and B at m and n ppm respectively m and n g/ha, then is E=X+Y−(X×Y/100)
(§3) If the observed insecticidal efficacy of the combination is higher than the one calculated as “E”, then the combination of the two compounds is more than additive, i.e., there is a synergistic effect.
(§4) To produce a suitable preparation of active compound, 1 part by weight of active compound is mixed with the stated amount of solvent and emulsifier, and the concentrate is diluted with emulsifier-containing water to the desired concentration. To produce a suitable preparation of a spore suspension the spores are diluted with emulsifier-containing water to the desired concentration.
Chinese cabbage (Brassica pekinensis) leaf-disks infected with all instars of the green peach aphid (Myzus persicae), are sprayed with a preparation of the active ingredient of the desired concentration.
After the specified period of time, mortality in % is determined. 100% means all aphids have been killed; 0% means none of the aphids have been killed. The mortality values determined thus are recalculated using the Colby-formula (see above).

[2] = tested on: Nilaparvata lugens; assay: Nilaparvata lugens spray test (NILALU), rice plants; details: 1 ppm; mortality after 3 d
Description: as §1, §2, §3
To produce a suitable preparation of active compound, 1 part by weight of active compound is mixed with the stated amount of solvent and emulsifier, and the concentrate is diluted with emulsifier-containing water to the desired concentration. […]
After the specified period of time, mortality in % is determined. […]

[3] = tested on: Phaedon cochleariae; assay: Phaedon cochleariae spray test, Chinese cabbage leaf-disks; details: mortality after 6 d
Description: as §1, §2, §3, §4
Chinese cabbage (Brassica pekinensis) leaf-disks are sprayed with a preparation of the active ingredient of the desired concentration. Once dry, the leaf disks are infested with mustard beetle larvae (Phaedon cochleariae).
After the specified period of time, mortality in % is determined. 100% means all beetle larvae have been killed and 0% means none of the beetle larvae have been killed. The mortality values determined thus are recalculated using the Colby-formula (see above).

[4] = tested on: Spodoptera frugiperda; assay: Spodoptera frugiperda spray test, cotton leaves; details: 0.8 ppm; mortality after 1 d
Description: as §1, §2
(§5) If the observed insecticidal efficacy of the combination is higher than the one calculated as “E”, then the combination of the two compounds is more than additive, i.e., there is a synergistic effect. […]
(§6) After the specified period of time, mortality in % is determined. […] The mortality values determined thus are recalculated using the Colby-formula (see above).

[5] = tested on: Tetranychus urticae; assay: Tetranychus urticae spray test, OP-resistant, French beans; details: 0.032 g ai/ha; mortality after 2 d
Description: as §1, §2, §5, §6

## N#Cc1nn(-c2c(Cl)cc(C(F)(F)F)cc2Cl)c(N)c1[S+]([O-])C(F)(F)F (stereo not drawn) [Fipronil (I95), Fipronil]
[1]; 4 g/ha
  Efficacy in % after 6d: 0%
[1]; 100 g/ha
  Efficacy in % after 6d: 0%
[2]
  Efficacy in % after 3d: 0%
[3]; 0.25 g ai/ha
  Efficacy in % after 6d: 33%

## CNC(=O)Oc1cc(C)c(SC)c(C)c1 [Methiocarb (I15), Methiocarb]
[1]; 500 g/ha
  Efficacy in % after 6d: 0%
[3]; 20 g ai/ha
  Efficacy in % after 6d: 0%

## CS/C(C)=N\OC(=O)N(C)SN(C)C(=O)O/N=C(\C)SC [Thiodicarb (I21), Thiodicarb]
[4]
  Efficacy in % after 1d: 50%

## Abamectin [Abamectin (I152)]
[3]; 0.8 g ai/ha
  Efficacy in % after 6d: 0%
[5]
  Efficacy in % after 2d: 0%
